Assay results from patent publication US6881752B2 (University of Alabama, priority 1998, dated 2005).

Legend:
[1] = system: membrane phosphotyrosine protein phosphatase (rat adipocytic membranes); test: Rat adipocytic membrane phosphotyrosine phosphatase activity, p-NPP substrate; type: biochemical; details: 5 mM p-NPP
Description: 125 μL of a rat membrane suspension corresponding to 0.0856 mg of protein/mL was utilized.
(§1) 100% activity represents the activity in the absence of added chromium complexes or their components. 25 μL of a rat membrane suspension corresponding to 0.0895 mg protein/mL was utilized.
(§2) Fat cells from male Sprague Dawley rats were isolated using the procedures of Rodbell^19 and Anderson et al.^20 with modifications.^2 Three rats (not kept on a Cr-deficient diet) were sacrificed by decapitation, and their epididymal fat pads removed. Rat adipocytes were washed with 1% bovine serum albumin (BSA). 50 mM Hepes, pH 7.4 buffer containing 10 μg/mL leupeptin and 5 μg/mL aprotinin. Cells were homogenized with a manual teflon homogenizer and frozen and thawed five times. The lipid layer was removed, and the cell homogenate was centrifuged for one hour at 40,000 g. The supernatant was removed, and the pellet was suspended in Hepes buffer and used as the source of membrane phosphatase and kinase activity. Protein concentrations were analyzed using the BCA method (Pierce Chemical Co.) with BSA as standard.
p-nitrophenyl phosphate (p-NPP) was used to determine the amount of PTP activity using the method of Li et al.^21 The assay used 5 mM substrate in 0.05 M Tris, pH 7.5, unless noted. Activation of PTP activity by LMWCr and other Cr-containing species was examined as described by Davis et al.^2 Solutions of LMWCr, 1,2, and the Cr-amino acid mixture were incubated with the enzyme for fifteen minutes at 37° C. before initiation of the reaction. Hydrolyses proceeded for one hour at 37° C. The extent of hydrolysis was determined at 404 nm (ε=1.78×10^4M^−1cm^−1).

[2] = target: T1, insulin-dependent membrane tyrosine protein kinase activity (rat adipocytic membranes) (Rattus norvegicus, UniProt P15127); test: Rat adipocytic membrane protein tyrosine kinase activity in the presence of 100 nM insulin; type: biochemical
T1 construct: from tissue; host or cells: epididymal fat pad adipocyte membranes, male Sprague Dawley rats
T1 sequence (P15127 764-1383 limits assumed): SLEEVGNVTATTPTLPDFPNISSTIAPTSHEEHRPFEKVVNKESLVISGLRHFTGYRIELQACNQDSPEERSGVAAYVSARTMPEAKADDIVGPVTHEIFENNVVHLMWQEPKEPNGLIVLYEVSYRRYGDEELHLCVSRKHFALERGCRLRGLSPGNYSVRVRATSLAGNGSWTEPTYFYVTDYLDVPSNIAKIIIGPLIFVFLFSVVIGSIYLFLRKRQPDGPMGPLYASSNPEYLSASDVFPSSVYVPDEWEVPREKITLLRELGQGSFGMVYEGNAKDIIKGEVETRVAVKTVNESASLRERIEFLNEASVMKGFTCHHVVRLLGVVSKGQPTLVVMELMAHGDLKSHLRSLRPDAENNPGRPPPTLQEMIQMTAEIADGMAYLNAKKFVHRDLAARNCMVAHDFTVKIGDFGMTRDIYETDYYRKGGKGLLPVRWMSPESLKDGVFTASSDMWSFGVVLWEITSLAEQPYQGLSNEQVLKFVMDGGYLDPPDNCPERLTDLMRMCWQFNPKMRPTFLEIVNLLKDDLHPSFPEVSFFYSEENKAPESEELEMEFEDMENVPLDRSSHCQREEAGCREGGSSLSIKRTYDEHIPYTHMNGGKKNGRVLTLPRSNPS
T1 sequence (P15127 27-759 partner limits assumed): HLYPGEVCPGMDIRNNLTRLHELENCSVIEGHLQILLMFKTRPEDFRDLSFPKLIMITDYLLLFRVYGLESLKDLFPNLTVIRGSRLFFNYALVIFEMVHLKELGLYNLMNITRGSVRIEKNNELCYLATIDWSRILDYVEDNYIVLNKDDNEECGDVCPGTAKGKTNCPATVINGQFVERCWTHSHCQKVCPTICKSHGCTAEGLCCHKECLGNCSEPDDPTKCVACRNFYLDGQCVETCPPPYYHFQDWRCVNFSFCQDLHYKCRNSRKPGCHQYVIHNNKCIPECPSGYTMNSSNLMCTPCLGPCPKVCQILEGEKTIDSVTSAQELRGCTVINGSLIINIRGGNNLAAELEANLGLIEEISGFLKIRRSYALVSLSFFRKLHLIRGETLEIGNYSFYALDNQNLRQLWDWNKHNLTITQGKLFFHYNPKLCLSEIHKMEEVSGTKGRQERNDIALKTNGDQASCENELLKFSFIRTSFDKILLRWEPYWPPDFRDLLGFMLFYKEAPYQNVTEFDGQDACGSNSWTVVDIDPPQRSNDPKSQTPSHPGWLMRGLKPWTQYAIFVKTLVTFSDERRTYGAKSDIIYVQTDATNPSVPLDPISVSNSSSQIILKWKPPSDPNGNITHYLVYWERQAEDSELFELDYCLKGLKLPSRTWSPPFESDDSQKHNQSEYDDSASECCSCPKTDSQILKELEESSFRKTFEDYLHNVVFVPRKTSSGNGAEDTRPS
T1 sequence (P01317 25-54 partner limits assumed): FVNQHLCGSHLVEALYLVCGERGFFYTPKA
T1 sequence (P01317 85-105 partner limits assumed): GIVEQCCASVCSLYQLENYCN
Description: as §1, §2

[3] = system: adult-onset diabetic patients; details: cited from earlier work

Molecule | effect on membrane phosphatase activity [1] | effect on insulin-dependent membrane kinase activity [2] | insulin requirements ([3]; 138 adult-onset diabetic patients) | glycemic control ([3]; 180 adult-onset diabetic patients)
CCC(=O)O [Propionic acid] | do not potentiate | do not potentiate | – | –
O=[N+]([O-])O [nitrate] | do not potentiate | do not potentiate | – | –
[Cr3O(O2CCH3)6 (H2O)3]Cl [compound 2] | inhibits | inhibits | – | –
chromium(III) picolinate | – | – | reduced insulin requirements | improved glycemic control
